Source: patent EP4752152A1, “STEROID COMPOUND, AND PREPARATION METHOD THEREFOR AND USE THEREOF” (Cholesgen (Shanghai) Co.Ltd., priority 2023, dated 2025)

System: SREBP pathway
Experiment: SREBP luciferase reporter gene system (SRE-luciferase assay)
Assay type: cell-based, human
Settings: Huh-7/SRE-luc cells, sterol-deficient medium, 0.01-10 µM
Summary of the method: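 Huh-7 cells stably carrying LDLR promoter-luciferase plus GFP were treated 16 h in sterol-deficient medium (5% lipoprotein-deficient serum, 2 µM lovastatin, 10 µM mevalonic acid) at 0.01–10 µM. Luciferase/GFP ratio measured as pathway activity; inhibition versus DMSO fitted to a four-parameter model for IC50.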

Structure (SMILES)	IC50 (16 hours)	IC50 (Homo sapiens, Huh-7, 16 h)
C[C@H](CCCC(O)c1cccc2nnn(C)c12)[C@H]1CC[C@H]2[C@H]3[C@H](CC[C@]12C)[C@@]1(C)CC[C@H](O)[C@H](O)[C@@H]1CC3(F)F (single isomer, unassigned) [Compound 278, (1R,3aS,3bS,5aR,6R,7S,9aR,9bS,11aR)-4,4-difluoro-1-[(2R,6R)-6-hydroxy-6-(3-methylbenzo[d][1,2,3]triazol-4-yl)hexan-2-yl]-9a,11a-dimethylhexadecahydro-1H-cyclopenta[1,2-a]phenanthrene-6,7-diol or (1R,3aS,3bS,5aR,6R,7S,9aR,9bS,11aR)-4,4-Difluoro-1-[(2R,6S)-6-hydroxy-6-(3-methylbenzo[d][1,2,3]triazol-4-yl)hexan-2-yl]-9a,11a-dimethylhexadecahydro-1H-cyclopenta[1,2-a]phenanthrene-6,7-diol]	0.189 µM	
C[C@H](CCC[C@H](O)c1ncc(F)cc1F)[C@H]1CC[C@H]2[C@H]3[C@H](CC[C@]12C)[C@@]1(C)CC[C@H](O)[C@H](O)[C@@H]1CC3(F)F (single isomer, unassigned) [Compound 279]		0.202 µM
C[C@H](CCC[C@@H](O)c1ncc(F)cc1F)[C@H]1CC[C@H]2[C@H]3[C@H](CC[C@]12C)[C@@]1(C)CC[C@H](O)[C@H](O)[C@@H]1CC3(F)F (single isomer, unassigned) [Compound 280]		0.238 µM
C[C@H](CCCC(O)c1cnc2c(c1)OC(F)(F)O2)[C@H]1CC[C@H]2[C@H]3[C@H](CC[C@]12C)[C@@]1(C)CC[C@H](O)[C@H](O)[C@@H]1CC3(F)F (single isomer, unassigned) [Compound 285]		0.253 µM
C[C@H](CCCC(O)c1cnc2c(c1)OC(F)(F)O2)[C@H]1CC[C@H]2[C@H]3[C@H](CC[C@]12C)[C@@]1(C)CC[C@H](O)[C@H](O)[C@@H]1CC3(F)F (single isomer, unassigned) [Compound 286]	0.26 µM	
C[C@H](CCCC(O)c1cncc2c1cnn2C)[C@H]1CC[C@H]2[C@H]3[C@H](CC[C@]12C)[C@@]1(C)CC[C@H](O)[C@H](O)[C@@H]1CC3(F)F (single isomer, unassigned) [Compound 287, (1R,3aS,3bS,5aR,6R,7S,9aR,9bS,11aR)-4,4-difluoro-1-[(2R,6S)-6-hydroxy-6-(1-methylpyrazolo[3,4-c]pyridin-4-yl)hexan-2-yl]-9a,11a-dimethylhexadecahydro-1H-cyclopenta[1,2-a]phenanthrene-6,7-diol or (1R,3aS,3bS,5aR,6R,7S,9aR,9bS,11aR)-4,4-difluoro-1-[(2R,6R)-6-hydroxy-6-(1-methylpyrazolo[3,4-c]pyridin-4-yl)hexan-2-yl]-9a,11a-dimethylhexadecahydro-1H-cyclopenta[1,2-a]phenanthrene-6,7-diol]	0.131 µM	
C[C@H](CCCC(O)c1cncc2c1cnn2C)[C@H]1CC[C@H]2[C@H]3[C@H](CC[C@]12C)[C@@]1(C)CC[C@H](O)[C@H](O)[C@@H]1CC3(F)F (single isomer, unassigned) [Compound 288, (1R,3aS,3bS,5aR,6R,7S,9aR,9bS,11aR)-4,4-difluoro-1-[(2R,6R)-6-hydroxy-6-(1-methylpyrazolo[3,4-c]pyridin-4-yl)hexan-2-yl]-9a,11a-dimethylhexadecahydro-1H-cyclopenta[1,2-a]phenanthrene-6,7-diol or (1R,3aS,3bS,5aR,6R,7S,9aR,9bS,11aR)-4,4-difluoro-1-[(2R,6S)-6-hydroxy-6-(1-methylpyrazolo[3,4-c]pyridin-4-yl)hexan-2-yl]-9a,11a-dimethylhexadecahydro-1H-cyclopenta[1,2-a]phenanthrene-6,7-diol]	0.388 µM	
C[C@H](CCCC(O)c1cccc2c1nnn2C)[C@H]1CC[C@H]2[C@H]3[C@H](CC[C@]12C)[C@@]1(C)CC[C@H](O)[C@H](O)[C@@H]1CC3(F)F (single isomer, unassigned) [Compound 290, (1R,3aS,3bS,5aR,6R,7S,9aR,9bS,11aR)-4,4-difluoro-1-[(2R,6S)-6-hydroxy-6-(1-methylbenzo[d][1,2,3]triazol-4-yl)hexan-2-yl]-9a,11a-dimethylhexadecahydro-1H-cyclopenta[1,2-a]phenanthrene-6,7-diol or (1R,3aS,3bS,5aR,6R,7S,9aR,9bS,11aR)-4,4-difluoro-1-[(2R,6R)-6-hydroxy-6-(1-methylbenzo[d][1,2,3]triazol-4-yl)hexan-2-yl]-9a,11a-dimethylhexadecahydro-1H-cyclopenta[1,2-a]phenanthrene-6,7-diol]		0.137 µM
C[C@H](CCCC(O)c1cccc2c1nnn2C)[C@H]1CC[C@H]2[C@H]3[C@H](CC[C@]12C)[C@@]1(C)CC[C@H](O)[C@H](O)[C@@H]1CC3(F)F (single isomer, unassigned) [Compound 291, (1R,3aS,3bS,5aR,6R,7S,9aR,9bS,11aR)-4,4-difluoro-1-[(2R,6R)-6-hydroxy-6-(1-methylbenzo[d][1,2,3]triazol-4-yl)hexan-2-yl]-9a,11a-dimethylhexadecahydro-1H-cyclopenta[1,2-a]phenanthrene-6,7-diol or (1R,3aS,3bS,5aR,6R,7S,9aR,9bS,11aR)-4,4-difluoro-1-[(2R,6S)-6-hydroxy-6-(1-methylbenzo[d][1,2,3]triazol-4-yl)hexan-2-yl]-9a,11a-dimethylhexadecahydro-1H-cyclopenta[1,2-a]phenanthrene-6,7-diol]	0.141 µM	
C[C@H](CCCC(O)c1cccc2nn[nH]c12)[C@H]1CC[C@H]2[C@H]3[C@H](CC[C@]12C)[C@@]1(C)CC[C@H](O)[C@H](O)[C@@H]1CC3(F)F (single isomer, unassigned) [Compound 294, (1R,3aS,3bS,5aR,6R,7S,9aR,9bS,11aR)-4,4-difluoro-1-[(2R,6S)-6-hydroxy-6-(3H-benzo[d][1,2,3]triazol-4-yl)hexan-2-yl]-9a,11a-dimethylhexadecahydro-1H-cyclopenta[1,2-a]phenanthrene-6,7-diol or (1R,3aS,3bS,5aR,6R,7S,9aR,9bS,11aR)-4,4-difluoro-1-[(2R,6R)-6-hydroxy-6-(3H-benzo[d][1,2,3]triazol-4-yl)hexan-2-yl]-9a,11a-dimethylhexadecahydro-1H-cyclopenta[1,2-a]phenanthrene-6,7-diol]		0.424 µM
C[C@H](CCCC(O)c1cccc2nn[nH]c12)[C@H]1CC[C@H]2[C@H]3[C@H](CC[C@]12C)[C@@]1(C)CC[C@H](O)[C@H](O)[C@@H]1CC3(F)F (single isomer, unassigned) [Compound 295, (1R,3aS,3bS,5aR,6R,7S,9aR,9bS,11aR)-4,4-difluoro-1-[(2R,6R)-6-hydroxy-6-(3H-benzo[d][1,2,3]triazol-4-yl)hexan-2-yl]-9a,11a-dimethylhexadecahydro-1H-cyclopenta[1,2-a]phenanthrene-6,7-diol or (1R,3aS,3bS,5aR,6R,7S,9aR,9bS,11aR)-4,4-difluoro-1-[(2R,6S)-6-hydroxy-6-(3H-benzo[d][1,2,3]triazol-4-yl)hexan-2-yl]-9a,11a-dimethylhexadecahydro-1H-cyclopenta[1,2-a]phenanthrene-6,7-diol]	0.275 µM	
COc1cccc(F)c1[C@H](O)CCC[C@@H](C)[C@H]1CC[C@H]2[C@H]3[C@H](CC[C@]12C)[C@@]1(C)CC[C@H](O)C[C@@H]1CC3(F)F (single isomer, unassigned) [Compound 315]		0.125 µM
C[C@H](CCC[C@H](O)c1nnnn1C)[C@H]1CC[C@H]2[C@H]3[C@H](CC[C@]12C)[C@@]1(C)CC[C@H](O)C[C@@H]1CC3(F)F (single isomer, unassigned) [Compound 380]		0.152 µM
C[C@H](CCC[C@@H](O)c1nnnn1C)[C@H]1CC[C@H]2[C@H]3[C@H](CC[C@]12C)[C@@]1(C)CC[C@H](O)C[C@@H]1CC3(F)F (single isomer, unassigned) [Compound 381]		0.285 µM
COc1ccnc(C[C@@H](O)CCC[C@@H](C)[C@H]2CC[C@H]3[C@H]4[C@H](CC[C@]23C)[C@@]2(C)CC[C@H](O)[C@H](O)[C@@H]2CC4(F)F)c1 (stereo in doubt) [Compound 304, (1R,3aS,3bS,5aR,6R,7S,9aR,9bS,11aR)-4,4-difluoro-1-[(2R,6S)-6-hydroxy-7-(4-methoxypyridin-2-yl)heptan-2-yl]-9a,11a-dimethylhexadecahydro-1H-cyclopenta[1,2-a]phenanthrene-6,7-diol]		0.243 µM
COc1ccnc(C[C@H](O)CCC[C@@H](C)[C@H]2CC[C@H]3[C@H]4[C@H](CC[C@]23C)[C@@]2(C)CC[C@H](O)[C@H](O)[C@@H]2CC4(F)F)c1 (stereo in doubt) [Compound 305, (1R,3aS,3bS,5aR,6R,7S,9aR,9bS,11aR)-4,4-difluoro-1-[(2R,6R)-6-hydroxy-7-(4-methoxypyridin-2-yl)heptan-2-yl]-9a,11a-dimethylhexadecahydro-1H-cyclopenta[1,2-a]phenanthrene-6,7-diol]		0.253 µM
C[C@H](CCC[C@@H](O)c1cc2ccccc2o1)[C@H]1CC[C@H]2[C@H]3[C@H](CC[C@]12C)[C@@]1(C)CC[C@H](O)[C@H](O)[C@@H]1CC3(F)F (stereo in doubt) [Compound 317, (1R,3aS,3bS,5aR,6R,7S,9aR,9bS,11aR)-1-[(2R,6R)-6-(1-benzofuran-2-yl)-6-hydroxyhexan-2-yl]-4,4-difluoro-9a,11a-dimethylhexadecahydro-1H-cyclopenta[1,2-a]phenanthrene-6,7-diol]	0.155 µM	
C[C@H](CCC[C@@H](O)c1n[nH]c2ccccc12)[C@H]1CC[C@H]2[C@H]3[C@H](CC[C@]12C)[C@@]1(C)CC[C@H](O)[C@H](O)[C@@H]1CC3(F)F (stereo in doubt) [Compound 320, (1R,3aS,3bS,5aR,6R,7S,9aR,9bS,11aR)-4,4-difluoro-1-[(2R,6R)-6-hydroxy-6-(1H-indazol-3-yl)hexan-2-yl]-9a,11a-dimethylhexadecahydro-1H-cyclopenta[1,2-a]phenanthrene-6,7-diol]		0.207 µM
